# Measured values published in patent publication US20260376311A1, “Subject selection for 11B-HSD1 inhibitor treatment” (ACTINOGEN MEDICAL LIMITED, priority 2022, published 2026).
# How the values were obtained:
# [1] = Clinical Dementia Rating Scale-Sum of Boxes (CDR-SB), Phase II placebo-controlled study, Biomarker Extension Study; assay type: in vivo, human; details: 12 weeks
# Description: (§1) A Phase II, Double-Blind, 12-Week, Randomised, Placebo-Controlled Study was conducted to Assess the Safety, Tolerability and Efficacy of Xanamem™ in Subjects with Mild Dementia due to Alzheimer's Disease (AD).
# (§2) Study Design: This is a Phase II, randomized, multi-centre, double-blind, placebo-controlled, proof-of-concept study to assess the safety, tolerability and efficacy of oral Xanamem™ QD in adult subjects with mild dementia due to AD.
# (§3) At the Baseline visit (Week 0), eligible subjects will be randomised on a 1:1 ratio to receive either 10 mg Xanamem™ administered orally, QD (treatment group) or matching placebo (placebo group). Subjects returned to the study site for the Interim visits (Week 4 and Week 8), EOT (Week 12) and Follow-up (4 weeks post last dose of study drug) visits, at which study assessments were performed.
# (§4) Xanamem™ is formulated in green and cream-coloured size 3, Coni-Snap shaped gelatin capsules as an excipient blend at a dose of 10 mg (see Table 1). The dose of Xanamen™ will be 10 mg administered orally, QD.
# The Washington University CDR is a global assessment instrument that yields global and SOB scores, with the global score regularly used in clinical and research settings to stage dementia severity. The CDR-SOB score has been considered a more detailed quantitative general index than the global score and provides more information than the global CDR score in participants with mild dementia. CDR Global results are relevant for subject eligibility and thus will also be performed at the Screening visit.
# The CDR is obtained through semi-structured interviews of patients and informants, and cognitive functioning is rated in six domains of functioning: memory, orientation, judgement and problem solving, community affairs, home and hobbies, and personal care. Each domain is rated on a five-point scale of functioning as follows: 0, no impairment; 0.5, questionable impairment; 1, mild impairment; 2, moderate impairment; and 3, severe impairment.
# The global CDR score is computed via an algorithm. CDR Global score is calculated using the Washington University online algorithm. The CDR-SOB is based on summing each of the domain box scores, with scores ranging from 0-18.
# (§5) A Non-interventional Biomarker Analysis Extension Protocol study was conducted for Participants who were previously enrolled in the above described Phase II, Double-Blind, 12-Week, Randomised, Placebo-Controlled Study to Assess the Safety, Tolerability and Efficacy of Xanamem™ in Subjects with Mild Dementia due to Alzheimer's Disease (AD). The objectives for study were: • 1. To analyze the levels of biomarkers of Alzheimer's Disease (AD) proteins, neurodegeneration, and neuro-inflammation in stored plasma samples from participants with mild dementia due to AD enrolled in the previous clinical trial (at baseline and Week 12 and their change from baseline for each treatment) • 2. To examine the change from baseline in biomarkers by treatment group to Week 12 by baseline pTau181 quartile categorization/level • 3. To explore the efficacy of Xanamem in relationship to quartiles categorization/level of pTau181 levels at baseline • 4. To correlate the changes from baseline in biomarkers by treatment with changes in cognitive endpoints
# From above described clinical study, the extant blood samples of 72 patients were subjected to further disease biomarker analysis. A biomarker laboratory (blinded to treatment assignment), analyzed those blood samples to determine the biomarker variable pTau181. […]
# [2] = Mini-Mental Status Examination (MMSE), Phase II placebo-controlled study, Biomarker Extension Study; assay type: in vivo, human
# Description: as §1, §2, §3, §4
# The MMSE is a 30-point questionnaire that is used extensively in clinical and research settings to measure cognitive impairment and is commonly used in medicine and allied health to screen for dementia. It is also used to estimate the severity and progression of cognitive impairment and to follow the course of cognitive changes in an individual over time; thus making it an effective way to document a participant's response to treatment. For this study, MMSE results are relevant for subject eligibility and performed at Screening visit.
# as §5
# (§6) From above described clinical study, the extant blood samples of 72 patients were subjected to further disease biomarker analysis. A biomarker laboratory (blinded to treatment assignment), analyzed those blood samples to determine the biomarker variable pTau181.
# An analysis of overall efficacy was undertaken of the population (n=72).
# (§7) For the cognitive efficacy variables (CDR-SB and MMSE), change from baseline to Week 12 was analyzed by ANCOVA with the following models: • treatment as fixed effect and baseline cognitive efficacy value as covariate; • treatment, baseline p-Tau181 (low/high) category, and treatment-by-baseline p-Tau181 (low/high) category as fixed effects, and baseline cognitive efficacy value as covariate; • treatment, baseline p-Tau181 (≤10.2 pg/mL/>10.2 pg/mL) category, and treatment-by-baseline p-Tau181 (≤10.2 pg/mL/>10.2 pg/mL) category as fixed effects, and baseline cognitive efficacy value as covariate; and • treatment, baseline MMSE (less severe (≥24)/more severe (≤23)) category, and treatment-by-baseline MMSE (less severe (≥24)/more severe (≤23)) category as fixed effects, and baseline cognitive efficacy value as covariate.
# pTau181 = assay: Biomarker analysis of plasma pTau181, Biomarker Extension Study; assay type: in vivo, human; details: 10 mg QD
# Description: as §5, §6
# as §7, with “biomarker p-Tau181,” for “cognitive efficacy variables (CDR-SB and MMSE),”, “were” for “was”, “biomarker” for “cognitive efficacy”
# [3] = Pharmacokinetics of Xanamem (Phase I peak concentrations; fed/fasted bioavailability); assay type: in vivo, human; details: oral; with meals vs fasted; in words
# [4] = Safety of drug intake when fasted; assay type: in vivo, human; details: oral, in words
# [5] = comparison with Xanamem treatment effect; cited from earlier work
# [6] = 10 mg QD oral, pTau >6.74 pg/mL subgroup, N = 34
# [7] = 10 mg QD oral, pTau > 10.2 pg/mL, N = 9
# [8] = 10 mg QD oral, pTau ≤ 10.2 pg/mL, N = 59
# [9] = Xanamem vs placebo, pTau>6.74 pg/mL subgroup, 10 mg QD
# [10] = 10 mg QD oral, 12 weeks, baseline MMSE 20-23, N = 46
# [11] = 10 mg QD oral, 12 weeks, baseline MMSE 24-26, N = 26
# [12] = baseline to Week 12, sample size 28 and 26
compound,measurement,setting,value
"O=C(c1csc(-c2cn[nH]c2)c1)N1[C@@H]2CC[C@H]1C[C@](O)(c1ncccn1)C2 [Xanamem, (5-(1H-Pyrazol-4-yl)thiophen-3-yl)(3-hydroxy-3-(pyrimidin-2-yl)-8-azabicyclo[3.2.1]octan-8-yl)methanone]","CDR-SB change, pTau pg/mL > 10.2 (median)","[1]; 10 mg QD oral, N = 9, desired change down, placebo 0.5",−0.3
same,"CDR-SB change, pTau pg/mL > 10.2 (mean)","[1]; 10 mg QD oral, N = 9, desired change down, placebo 0.8",0.1
same,"CDR-SB change, pTau units ≤ 6.74 (median)","[1]; 10 mg QD oral, N = 34, desired change down, placebo 0.0",0.0
same,"CDR-SB change, pTau > 6.74 pg/mL (median)","[1]; 10 mg QD oral, N = 34, desired change down, placebo 0.8",0.0
same,"CDR-SB change, pTau > 6.74 pg/mL (mean)","[1]; 10 mg QD oral, N = 34, desired change down, placebo 1.0",0.4
same,"CDR-SB change, pTau units ≤ 6.74 (mean)","[1]; 10 mg QD oral, N = 34, desired change down, placebo −0.1",0.5
same,"CDR-SB change, pTau ≤ 10.2 pg/mL (median)","[1]; 10 mg QD oral, N = 59, desired change down, placebo 0.0",0.0
same,"CDR-SB change, pTau ≤ 10.2 pg/mL (mean)","[1]; 10 mg QD oral, N = 59, desired change down, placebo 0.4",0.5
same,"Cohen's d for CDR-SB (mean), Xanamem vs placebo",[1]; [6],0.41
same,"p value for CDR-SB (mean), Xanamem vs placebo",[1]; [6],0.09
same,"CDR-SB units (median), change","[1]; 10 mg QD oral, pTau >6.74 pg/mL subgroup, Xanamem n = 16, desired change down, placebo 0.8",0.0 CDR-SB units
same,"CDR-SB units (mean), change","[1]; 10 mg QD oral, pTau >6.74 pg/mL subgroup, Xanamem n = 16, desired change down, placebo 1.0",0.4 CDR-SB units
same,"Cohen's d for CDR-SB (mean), Xanamem vs placebo",[1]; [7],0.62
same,"p value for CDR-SB (mean), Xanamem vs placebo",[1]; [7],0.33
same,"Cohen's d for CDR-SB (mean), Xanamem vs placebo","[1]; 10 mg QD oral, pTau units ≤ 6.74, N = 34",0.40
same,"p value for CDR-SB (mean), Xanamem vs placebo","[1]; 10 mg QD oral, pTau ≤ 6.74 pg/mL, N = 34",0.08
same,"Cohen's d for CDR-SB (mean), Xanamem vs placebo",[1]; [8],−0.06
same,"p value for CDR-SB (mean), Xanamem vs placebo",[1]; [8],0.78
same,"treatment effect on CDR-SB, mean",[1]; [9],0.6 points
same,"treatment effect on CDR-SB, median",[1]; [9],0.8 points
same,"Cohen's d for MMSE (mean), Xanamem vs placebo",[2]; [10],0.93
same,"p value for MMSE (mean), Xanamem vs placebo",[2]; [10],0.02
same,"MMSE change, MMSE 20-23 (mean)","[2]; 10 mg QD oral, 12 weeks, baseline MMSE 20-23, N = 46, desired change up, placebo −0.3",1.7
same,"MMSE change, MMSE 20-23 (median)","[2]; 10 mg QD oral, 12 weeks, baseline MMSE 20-23, N = 46, desired change up, placebo −1.0",2.0
same,"Cohen's d for MMSE (mean), Xanamem vs placebo",[2]; [11],−0.17
same,"p value for MMSE (mean), Xanamem vs placebo",[2]; [11],0.88
same,"MMSE change, MMSE 24-26 (median)","[2]; 10 mg QD oral, 12 weeks, baseline MMSE 24-26, N = 26, desired change up, placebo −1.0",−1.0
same,"MMSE change, MMSE 24-26 (mean)","[2]; 10 mg QD oral, 12 weeks, baseline MMSE 24-26, N = 26, desired change up, placebo −1.4",−1.5
same,"Cohen's d for MMSE, Xanamem over placebo","[2]; overall population n=72, 10 mg QD",0.35
same,increase in the mean MMSE score,"[2]; overall population n=72, Xanamem n=37, 10 mg QD, placebo (n=35) decrease of 0.6",0.3
same,change in biomarker pTau181 from baseline to Week 12,"pTau181; sample size 28 (Xanamem) and 26 (placebo), placebo −8.59",−2.37
same,treatment trend in change of pTau181,"pTau181; baseline to Week 12, in words",no treatment trend was observed
same,"Cohen's d for change in pTau181, Xanamem vs placebo",pTau181; [12],0.08
same,"p for change in pTau181, Xanamem vs placebo",pTau181; [12],0.40
same,bioavailability in fed state,[3],higher bioavailability observed when taken in a fed state
same,safety of drug intake when fasted,[4],no safety concern
CC12CC3CC(C)(C1)CC(N)(C3)C2 [memantine],Cohen's d of approved oral anticholinesterases or memantine,[5],0.2-0.3
